Data from patent US5039684A, “Tetrazole amide derivatives of heterocyclic alkenyl acid and their use as antiallergic substances” (Valeas S. p. A., priority 1989, dated 1991).

Legend:
[1] = tested on: passive cutaneous anaphylaxis; experiment: PCA test on the rat, time response curve after oral administration; format: in vivo, rat (male Sprague Dawley); settings: Rattus norvegicus; for inhibition in vivo at 3 mg/kg: 3 mg/kg/os; for inhibition in vivo at 1 mg/kg: 1 mg/kg/os; for inhibition in vivo at 30 mg/kg: read-out: inhibition %; for inhibition in vivo at 10 mg/kg: 10 mg/kg/os
Description: (§1) The serum, obtained from rats actively sensitized with ovalbumin (antigen) and suitably diluted, was injected intradermically into the shaven back of male Sprague Dawley rats (2 wheals per rat).
(§2) The rats were treated intravenously after 24 hours with a solution of ovalbumin and Evans blue. Thirty minutes later they were killed and the diameter and intensity of the blue ring formed at the site of the intradermic injection were measured.
(§3) For each treated group (5 per group) the % inhibition was then calculated with respect to the control group.
(§4) For intravenous administration (2 ml/kg), those compounds in which R1 =H (see formula I) were dissolved in an aqueous 1% NaHCO3 solution whereas for oral administration (4 ml/Kg) they were either suspended in 0.5% carboxymethylcellulose or dissolved in an aqueous 3% NaHCO3 solution.

[2] = tested on: passive cutaneous anaphylaxis; experiment: PCA test on the rat, intravenous administration just before challenge with antigen; format: in vivo, rat (male Sprague Dawley); settings: for ED50: read-out: ED50 (conf. lim) P = 0.05
Description: as §1, §2, §3
The pharmacological screening was effected by administering the compounds of the present invention intravenously and orally.
as §4

mouse = experiment: Acute toxicity in the mouse, oral administration; format: in vivo
Description: (§5) Acute toxicity was evaluated in the mouse by administering the compounds orally at scalar doses to a maximum of 1000 mg/kg to evaluate the 50% lethal dose (LD50). The compounds were administered in carboxymethylcellulose (0.5%) in a volume of […] to male mice (Swiss stock) of average weight 20 g.

[3] = Acute toxicity in the mouse, oral administration; format: in vivo; settings: mouse, in vivo, po, 1000 mg/kg, oral, 1000 mg/kg/os; read-out: mortality (%EAD)
Description: as §5

[4] = tested on: passive cutaneous anaphylaxis; experiment: PCA test on the rat, oral administration before challenge with antigen; format: in vivo, rat (male Sprague Dawley); settings: for inhibition in vivo at 0.3 mg/kg / inhibition in vivo at 1 mg/kg / inhibition in vivo at 3 mg/kg / ED50 / inhibition in vivo at 10 mg/kg / inhibition in vivo at 30 mg/kg: Rattus norvegicus, po; for inhibition in vivo at 3 mg/kg / inhibition in vivo at 10 mg/kg / inhibition in vivo at 30 mg/kg: read-out: inhibition (%); for ED50: 5 min, Table 2, oral administration, read-out: ED50 (conf. lim) P = 0.05; for ED50 OS/ED50 iv: oral 5 minutes before challenge / i.v. immediately before challenge
Description: The serum, obtained from rats actively sensitized with ovalbumin (antigen) and suitably diluted, was injected intradermically into the shaven back of male Sprague Dawley rats (2 wheals per rat). The rats were treated intravenously after 24 hours with a solution of ovalbumin and Evans blue. Thirty minutes later they were killed and the diameter and intensity of the blue ring formed at the site of the intradermic injection were measured. […] The pharmacological screening was effected by administering the compounds of the present invention intravenously and orally. For intravenous administration (2 ml/kg), those compounds in which R1 =H (see formula I) were dissolved in an aqueous 1% NaHCO3 solution whereas for oral administration (4 ml/Kg) they were either suspended in 0.5% carboxymethylcellulose or dissolved in an aqueous 3% NaHCO3 solution.

[5] = 5 min, oral, 5 minutes before challenge
[6] = 0.25 h, oral, 15 minutes before challenge
[7] = 0.5 h, oral, 30 minutes before challenge
[8] = 1 h, oral, 60 minutes before challenge
[9] = 2 h, oral, 120 minutes before challenge
[10] = Rattus norvegicus, iv, 1 mg/kg, immediately before challenge, read-out: inhibition (%)
[11] = Rattus norvegicus, iv, immediately before challenge
[12] = 3 mg/kg, 5 minutes before challenge
[13] = Rattus norvegicus, iv, 0.3 mg/kg, immediately before challenge, read-out: inhibition (%)
[14] = 5 min, oral, 30 mg/kg/os, 5 minutes before challenge
[15] = 0.25 h, oral, 30 mg/kg/os, 15 minutes before challenge
[16] = 0.5 h, oral, 30 mg/kg/os, 30 minutes before challenge
[17] = 1 h, oral, 30 mg/kg/os, 60 minutes before challenge
[18] = 2 h, oral, 30 mg/kg/os, 120 minutes before challenge
[19] = 10 mg/kg, 5 minutes before challenge
[20] = 30 mg/kg, 5 minutes before challenge
[21] = Rattus norvegicus, iv, read-out: inhibition (%)

Row | SMILES | inhibition in vivo at 1 mg/kg [2, 10] [%] | inhibition in vivo at 3 mg/kg [2, 11] [%] | inhibition in vivo at 10 mg/kg [2, 11] [%] | ED50 [2, 11] [mg/kg] | No. (dead) (mouse; mouse, in vivo, po, 1000 mg/kg) | mortality [3] [%] | inhibition in vivo at 0.3 mg/kg ([4]; 5 minutes before challenge) [%] | inhibition in vivo at 1 mg/kg ([4]; 5 minutes before challenge) [%] | inhibition in vivo at 3 mg/kg [4, 12] [%] | ED50 ([4]; 5 minutes before challenge) [mg/kg] | ED50 OS/ED50 iv [4] | inhibition in vivo at 0.3 mg/kg [2, 13] [%] | No. (dead) (mouse; oral, 1000 mg/kg/os, 8 treated) | inhibition in vivo at 10 mg/kg [4, 19] [%] | inhibition in vivo at 30 mg/kg [4, 20] [%] | also measured
1 | Cc1ccc(/C=C\C(=O)Nc2nn[nH]n2)o1 [VAL 47-073cis, N-1H-tetrazol-5-yl-[3-[5-methyl-(2-furyl)]]-acrylamide cis isomer] | 6.6 | 25 | 69.4 | 5.76 | 1 | 12.5 | 25.1 | 42.6 | 67.2 | 1.26 | 0.22 | – | – | – | – | inhibition in vivo at 3 mg/kg [1, 5]: 50.8%; inhibition in vivo at 3 mg/kg [1, 6]: 66.4%; inhibition in vivo at 3 mg/kg [1, 7]: 17.3%; inhibition in vivo at 3 mg/kg [1, 8]: 5.8%; inhibition in vivo at 3 mg/kg [1, 9]: 0%
2 | Cc1ccc(/C=C\C(=O)Nc2nn[nH]n2)s1 [VAL 47-005cis, N-1H-tetrazol-5-yl-[3-[5-methyl-(2-thienyl)]]acrylamide cis isomer] | 54.6 | 82.9 | – | 0.89 | 0 | 0 | 23.6 | 51.1 | 94.5 | 0.78 | 0.88 | 18 | – | – | – | inhibition in vivo at 1 mg/kg [1, 5]: 52.4%; inhibition in vivo at 1 mg/kg [1, 6]: 27.5%; inhibition in vivo at 1 mg/kg [1, 7]: 20.6%; inhibition in vivo at 1 mg/kg [1, 8]: 19.6%; inhibition in vivo at 1 mg/kg [1, 9]: 2.1%; activity greater than its trans isomer (VAL 47-005) ([2]; i.v., ratio of ED50): about 3 times; toxicity (in words) (mouse; oral, mouse): do not determine any toxic effect
3 | O=C(/C=C/c1ccncc1)Nc1nn[nH]n1 [VAL 47-042, N-1H-tetrazol-5-yl-[3-(4-pyridyl)]-acrylamide trans isomer] | 41.7 | 77.8 | – | 1.28 | – | 0 | – | – | 0 | – | – | 3.9 | 0 | 5.3 | 21.4 | inhibition in vivo at 30 mg/kg [1, 14]: 6.3%; inhibition in vivo at 30 mg/kg [1, 15]: 0%; inhibition in vivo at 30 mg/kg [1, 16]: 0.5%; inhibition in vivo at 30 mg/kg [1, 17]: 0%; inhibition in vivo at 30 mg/kg [1, 18]: 0%
4 | O=C(/C=C/c1ccnc2ccccc12)Nc1nn[nH]n1 [VAL 47-067, N-1H-TETRAZOL-5-YL-[3-(4-QUINOLYL)] […] ISOMER] | – | – | – | – | – | 12.5 | – | – | – | – | – | – | 1 | – | – | inhibition in vivo at 30 mg/kg ([1]; po, 5 min): 50.5%; inhibition in vivo at 30 mg/kg ([1]; po, 0.25 h): 29.3%; inhibition in vivo at 30 mg/kg ([1]; po, 0.5 h): 13.3%; inhibition in vivo at 30 mg/kg ([1]; po, 1 h): 0%; inhibition in vivo at 30 mg/kg ([1]; po, 2 h): 0%; ED50 ([2]; Rattus norvegicus, iv): 0.35 mg/kg; inhibition in vivo at 0.1 mg/kg [2, 21]: 1.1%; inhibition in vivo at 0.3 mg/kg [2, 21]: 53.6%; inhibition in vivo at 1 mg/kg [2, 21]: 81.8%; inhibition in vivo at 3 mg/kg [4]: 8.3%; inhibition in vivo at 10 mg/kg [4]: 0%; inhibition in vivo at 30 mg/kg [4]: 16.7%
5 | Cc1ccc(/C=C/C(=O)Nc2nn[nH]n2)o1 [VAL 47-073, N-1H-tetrazol-5-yl-[3-[5-methyl-(2-furyl)]]-acrylamide trans isomer] | 3.4 | 50.7 | 95.1 | 3.13 | 0 | 0 | 22 | 44 | 87.5 | 0.92 | 0.29 | – | – | 89.3 | – | inhibition in vivo at 1 mg/kg [1, 5]: 52.6%; inhibition in vivo at 1 mg/kg [1, 6]: 7.8%; inhibition in vivo at 1 mg/kg [1, 7]: 19.8%; inhibition in vivo at 1 mg/kg [1, 8]: 0%; inhibition in vivo at 1 mg/kg [1, 9]: 0%; toxicity (in words) (mouse; oral, mouse): do not determine any toxic effect
6 | O=C(/C=C/c1ccsc1)Nc1nn[nH]n1 [VAL 47-034, N-1H-tetrazol-5-yl-[3-(3-thienyl)]-acrylamide trans isomer] | 1.3 | 48.6 | 63.5 | 4.74 | – | 25 | – | – | 0 | – | – | – | 2 | 0 | 53.4 | inhibition in vivo at 30 mg/kg [1, 14]: 64.5%; inhibition in vivo at 30 mg/kg [1, 15]: 36%; inhibition in vivo at 30 mg/kg [1, 16]: 41.9%; inhibition in vivo at 30 mg/kg [1, 17]: 6.9%; inhibition in vivo at 30 mg/kg [1, 18]: 0%
7 | O=C(/C=C/c1ccccn1)Nc1nn[nH]n1 [VAL 47-055, N-1H-tetrazol-5-yl-[3-(2-pyridyl)]-acrylamide trans isomer] | 47.5 | 85.9 | – | 1.54 | 0 | 0 | – | 22.5 | 28.3 | 7.94 | 5.15 | 5.6 | – | 52.9 | 81 | inhibition in vivo at 10 mg/kg [1, 5]: 45.6%; inhibition in vivo at 10 mg/kg [1, 6]: 0.5%; inhibition in vivo at 10 mg/kg [1, 7]: 0%; inhibition in vivo at 10 mg/kg [1, 8]: 4.7%; inhibition in vivo at 10 mg/kg [1, 9]: 0%
